What all share (format): functional
The test system of assay [1] is Spodoptera frugiperda. The assay can be described thus: Antifeedant activity against Spodoptera frugiperda (fall armyworm) assessed as feeding index at 100 ppm after 18 hr relative to control.
Assay [2] concerns Spodoptera littoralis. The assay can be described thus: Phagostimulant activity against Spodoptera littoralis assessed as feeding index at 100 ppm after 18 hr relative to control.
In assay [3] the test system is Spodoptera littoralis. The assay can be described thus: Antifeedant activity against Spodoptera littoralis assessed as feeding index at 100 ppm after 18 hr relative to control.

As to `C=C1C[C@@]23C[C@@H]1CC[C@H]2[C@]1(C)CC[C@@H](O)[C@](C)(COC(C)=O)[C@@H]1C[C@@H]3O` [LINEAROL], the AFI in assay [1] is recorded as 8%.

With `C=C1C[C@]23C[C@H]1CC[C@H]2[C@]1(C)CC[C@@H](O)[C@](C)(CO)[C@H]1C[C@@H]3O`, in assay [1], the AFI is listed as 21%. The FI in assay [2] is reported as 52.

Take `C[C@]1(CO)CCC[C@]2(C)[C@H]1C[C@H](O)[C@@]13C[C@@H](CC[C@@H]21)[C@]1(C)O[C@@H]13` [SIDEROXOL]: the AFI in assay [1] is reported as 54%; in assay [3] it was 9%.

Take `CC(=O)OC[C@]1(C)[C@H]2C[C@H](O)[C@]34C=C(C)[C@H](CC[C@H]3[C@]2(C)CC[C@H]1O)C4`: the AFI in assay [1] is reported as 12%.

For `CC1=C[C@]23C[C@H]1CC[C@H]2[C@]1(C)CCC[C@](C)(CO)[C@H]1C[C@@H]3O`, the AFI in assay [1] amounted to 13%; in assay [3], 27%.

The values above are taken from ChEMBL document CHEMBL3046230, “Diversity and antifeedant activity of diterpenes from Turkish species of Sideritis” (2000).
